Measured values from PubChem BioAssay AID624344 (Sanford-Burnham Center for Chemical Genomics, 2012).
Calls of active or inactive are those of the source. No rule for the calls is given here.

Key:
Cytotoxicity = experiment: NFkB reporter suppression in cystic fibrosis bronchial cells – cell-based, uHTS hits, panel, cytotoxicity readout, dose response (AID 624344); conditions: CF bronchial epithelial cells, mean of runs
[1] = as above; conditions: CF bronchial epithelial cells, PAF-induced NFkB reporter inhibition; with PAF, mean of runs

Row | SMILES | IC50 (Cytotoxicity) | IC50 [1]
1 | CS(=O)(=O)c1ncc(Cl)c(C(=O)Nc2ccc(OC(F)F)cc2)n1 | 3.58 µM | 1.78 µM
2 | Cc1ccc(C(=O)c2cc([N+](=O)[O-])ccc2N2CCCCC2)c(C)c1 | > 79 µM (inactive) | 6.86 µM
3 | COc1ccc2cc3c(N)nn(C(=O)Cc4ccccc4OC)c3nc2c1 | 47.4 µM | 2.67 µM
4 | COc1ccc2cc(C(N)=O)c(=Nc3ccc(C)cc3)oc2c1 | 13.3 µM | 2.58 µM
5 | CCOC(=O)c1c(C)cc2c(CO)n[nH]c(=O)c2c1C | 62.8 µM (inactive) | 6.83 µM
6 | Cn1c(N2CCN(C(c3ccccc3)c3ccccc3)CC2)nc2c1c(=O)[nH]c(=O)n2C | 7.56 µM | 3.69 µM
7 | C[C@]12CCC(O)CC1CCC1C2CC[C@]2(C)C(c3cc(C(F)(F)F)n[nH]3)CCC12 (stereo not given in full) | 5.25 µM | 1.92 µM
8 | Cc1ccc(S(=O)(=O)Nc2ccc3cc([N+](=O)[O-])ccc3c2[N+](=O)[O-])cc1 | 4.15 µM | 3.17 µM
9 | Cc1nn(-c2nccs2)c2c1C(=O)CC(C)(C)C2Br (stereo not given) | 38.8 µM | 5.11 µM
10 | CC(=O)c1ccc(-n2c(C)c(C(C)=O)c3cc(O)ccc32)cc1 | 44.5 µM | 1.34 µM
11 | COc1ccc(-c2cc(=O)oc3cc(OC(=O)C4CCCCC4)c(Cl)cc23)cc1 | 61.6 µM (inactive) | 0.302 µM
12 | CCN(CC)CCNC(=O)c1ccc(NC(=O)C2CCN(c3ncnc4sc(C)c(C)c34)CC2)cc1 | 16.1 µM | 6.33 µM
13 | O=[N+]([O-])c1ccc(Oc2ccc(F)cc2)c2ccncc12 | 42.4 µM | 1.82 µM
14 | COc1ccc(S(=O)(=O)N2c3cc(C)ccc3OCC2C(C)(C)C)cc1 (stereo not given) | > 79 µM (inactive) | 6.36 µM
15 | O=S(=O)(CC(CN1CCCC1)N1CCCC1)c1ccc2ccccc2c1 (stereo not given) | 2.35 µM | 1.46 µM
16 | O=C1NCCc2c1[nH]c1c(Cl)ccc(Cl)c21 | 11 µM | 1.54 µM
17 | O=C(Nc1ccccc1N1CCOCC1)c1cc(-c2ccco2)nc2ccccc12 | 9.59 µM | 3.88 µM
18 | CCOc1ccc(CCN2C(=S)N([C@@H](CC(C)C)CN3CCCC3CN3C(=S)NC[C@@H]3CC(C)C)C[C@@H]2Cc2ccc(O)cc2)cc1 (stereo not given in full) | 64.1 µM (inactive) | 14.9 µM
19 | N#Cc1ccsc1NC(=O)c1ccc(Cl)c([N+](=O)[O-])c1 | 18.4 µM | 4.95 µM
20 | CN(C)CCCN(C(=O)CCSc1ccccc1)c1nc2cc3c(cc2s1)OCO3 | 26.1 µM | 9.46 µM

Row | SMILES | IC50 (Cytotoxicity) | IC50 [1]
21 | COc1cc(C2c3cc4c(cc3C(O)C3COC(=O)C23)OCO4)cc(OC)c1OC (stereo not given) | > 79 µM (inactive) | > 79 µM (inactive)
22 | O=C(NCCc1ccccc1)c1coc(=O)c(Br)c1 | 11.5 µM | 4.91 µM
23 | COc1cc(-c2cnc3c(NC=O)cc(-c4ccc(C)cc4)cn23)cc(OC)c1OC | 22 µM | > 79 µM (inactive)
24 | COc1cc(C(=O)c2cc3c(cc2C)OCO3)cc(OC)c1OC | 44.5 µM | > 79 µM (inactive)
25 | Cc1cccc(N2CCN(C(=O)CCn3c(=S)[nH]c4cc5c(cc4c3=O)OCO5)CC2C)c1 (stereo not given) | 18.5 µM | 6.2 µM
26 | Cc1ccccc1S(=O)(=O)Cc1ccc(C(=O)N2CCN(c3cccc(C)c3C)CC2)o1 | 25 µM | 11 µM
27 | COc1ccc2cc3c(N)nn(C(=O)c4ccccc4[N+](=O)[O-])c3nc2c1 | 40.2 µM | 0.54 µM
28 | Cc1cccc(CNc2ncnc3ccc(-c4ccoc4)cc23)c1 | 6.04 µM | < 0.15 µM
29 | CC(=O)OC1CCC2(C)C(CCC3C4CC=C(C(C)=O)C4(C)OC(=O)CC32)C1 (stereo not given) | 5.07 µM | 0.972 µM
30 | O=C(N/N=C/c1ccccc1)c1[nH]c2ccc(Br)cc2c1-c1ccccc1 | 40.6 µM | 6.11 µM
31 | Fc1cccc(Cl)c1/C=N/Nc1c(Cl)cncc1Cl | 26.2 µM | 5.83 µM
32 | COc1cc2cncc(Cc3ccc(Cl)cc3)c2cc1OC | 20.9 µM | 2.87 µM
33 | CC(=O)Nc1ccc(NC(=O)c2nc(S(=O)(=O)Cc3cccc(C)c3)ncc2Cl)cc1 | 11.5 µM | 5.98 µM
34 | Nc1ncc(-c2ccccc2)c(-c2ccc(O)cc2O)n1 | > 79 µM (inactive) | 4.01 µM
35 | CCCCCCCCCc1nc2sc3c(c2c(=O)n1NC(=O)c1ccc([N+](=O)[O-])cc1)CC(C)(C)OC3 | 43.8 µM | 5.52 µM
36 | COc1ccc(CN2C[C@H]3CCCN3c3cc(Br)ccc3S2(=O)=O)cc1 | 61.7 µM (inactive) | 9.73 µM
37 | COc1cc(NC(=O)c2cc3ccccc3cc2OC)ccc1NC(=O)c1cccs1 | 11 µM | 5.79 µM
38 | O=S(=O)(Nc1ccc(Cl)cc1NS(=O)(=O)c1ccccc1)c1ccccc1 | 40.3 µM | 10 µM
39 | Cc1nc2c(O)c3c(c(O)c2nc1C)C1C=CC3CC1 | 7.03 µM | 5.67 µM
40 | Cc1ccc(S(=O)(=O)Nc2cccc3ncccc23)s1 | > 79 µM (inactive) | 1.48 µM
